The results in this text go back to PubChem BioAssay (NCI).

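The compound was tested at five concentrations on cells cultured in 96-well plates, with a 48-hour exposure period. TGI: total growth inhibition.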 Some results are limits rather than exact numbers.

Test systems include CCRF-CEM leukemia; HT29 colon; IGROV1 ovarian; K-562 leukemia; MALME-3M melanoma; MOLT-4 leukemia; NCI-H522 lung; OVCAR-8 ovarian; SN12C renal; SNB-19 CNS; TK-10 renal; U251 CNS; UO-31 renal; COLO 205 colon; HL-60(TB) leukemia; OVCAR-4 ovarian.
Common to all, as to experiment: DTP human tumour cell line panel, 48 h

In the case of `CC(C)(C)C(=O)/C=C/c1ccc(Oc2ccccc2)cc1`, the TGI (as a rule, the concentration at which net growth stops) in the experiment with CCRF-CEM leukemia is 40.5 µM; in the experiment with HT29 colon it was 25 µM; in the experiment on IGROV1 ovarian, greater than 100 µM; in the experiment with K-562 leukemia, 36 µM; with MALME-3M melanoma, 44.6 µM; with MOLT-4 leukemia, 42.4 µM. Further, the TGI with NCI-H522 lung was 24.1 µM; in the experiment on OVCAR-8 ovarian, greater than 100 µM; in the experiment with SN12C renal, 46 µM; in the experiment with SNB-19 CNS, 68.1 µM; in the experiment with TK-10 renal it was 59.7 µM; in the experiment on U251 CNS it was 28.4 µM. For the same molecule, the total growth inhibition concentration (TGI) with UO-31 renal came out at 54.3 µM.

As to `COc1c(C)c2c(c(C)c1Cl)Oc1c(C=O)c(O)c(Cl)c(C)c1C(=O)O2`, the TGI in the experiment with CCRF-CEM leukemia is 72.5 µM; in the experiment on COLO 205 colon, 66.4 µM; in the experiment with HL-60(TB) leukemia it was 57.8 µM; with HT29 colon, greater than 100 µM; with IGROV1 ovarian, 83.8 µM; in the experiment with K-562 leukemia, 97 µM. Also, the total growth inhibition concentration (TGI) was 61 µM in the experiment on MALME-3M melanoma; 65.2 µM in the experiment with MOLT-4 leukemia; 96.4 µM in the experiment with NCI-H522 lung; greater than 100 µM in the experiment on OVCAR-8 ovarian; greater than 100 µM in the experiment with SN12C renal; greater than 100 µM with TK-10 renal. In the experiment on U251 CNS, this molecule returned a TGI of 44.9 µM.

In the case of `COc1cc2c(cc1OC)C(O)[C@H](Br)C(C)(C)O2` (stereo not given in full), the TGI with CCRF-CEM leukemia, in the experiment on COLO 205 colon, in the experiment with HL-60(TB) leukemia, in the experiment with HT29 colon, in the experiment on IGROV1 ovarian and in the experiment on K-562 leukemia was greater than 100 µM in each case. In addition, the TGI with MALME-3M melanoma, in the experiment on MOLT-4 leukemia, with NCI-H522 lung, in the experiment on OVCAR-4 ovarian, in the experiment with OVCAR-8 ovarian and in the experiment with SN12C renal was greater than 100 µM in each case. Besides, the concentration for total growth inhibition (TGI) in the experiment on SNB-19 CNS, with TK-10 renal, in the experiment on U251 CNS and in the experiment on UO-31 renal was greater than 100 µM throughout.

As to `Cc1ccc2c(c1CCCC(C)(C)O)C(=O)C(=O)C(C(C)C)=C2O`, the concentration for total growth inhibition (TGI) in the experiment with CCRF-CEM leukemia, with COLO 205 colon, with HL-60(TB) leukemia, in the experiment with HT29 colon, in the experiment with IGROV1 ovarian and in the experiment on K-562 leukemia was greater than 100 µM throughout. Further, the TGI in the experiment with MALME-3M melanoma, with MOLT-4 leukemia, with NCI-H522 lung, in the experiment on OVCAR-4 ovarian, with OVCAR-8 ovarian and with SN12C renal was greater than 100 µM each time. Also, the total growth inhibition concentration (TGI) with SNB-19 CNS, in the experiment on TK-10 renal, with U251 CNS and with UO-31 renal was greater than 100 µM throughout.

As to `Cc1cn(C2CC(N(O)Cc3ccccc3)C(CO)O2)c(=O)[nH]c1=O` (stereo not given), the concentration for total growth inhibition (TGI) with CCRF-CEM leukemia, with COLO 205 colon, in the experiment with HL-60(TB) leukemia, in the experiment on HT29 colon, in the experiment with IGROV1 ovarian and in the experiment on K-562 leukemia was greater than 100 µM in each case. For the same molecule, the concentration for total growth inhibition (TGI) in the experiment with MOLT-4 leukemia, with OVCAR-4 ovarian, with OVCAR-8 ovarian, in the experiment on SN12C renal, in the experiment with SNB-19 CNS and in the experiment on TK-10 renal was greater than 100 µM throughout. For the same molecule, the TGI in the experiment on U251 CNS and in the experiment with UO-31 renal was greater than 100 µM each time.

For `O=c1[nH]cc(COCC(F)(F)C(F)(F)C(F)(F)C(F)F)c(=O)[nH]1`, the TGI in the experiment with CCRF-CEM leukemia, in the experiment with COLO 205 colon, in the experiment on HL-60(TB) leukemia, in the experiment on HT29 colon, with IGROV1 ovarian and with K-562 leukemia was greater than 100 µM throughout. Also, the total growth inhibition concentration (TGI) with MALME-3M melanoma, in the experiment on MOLT-4 leukemia, with NCI-H522 lung, in the experiment with OVCAR-8 ovarian, in the experiment on SN12C renal and in the experiment on SNB-19 CNS was greater than 100 µM in each case. Further, the concentration for total growth inhibition (TGI) with TK-10 renal, with U251 CNS and in the experiment with UO-31 renal was greater than 100 µM throughout.

For the molecule `Cc1cn2c(=O)c3ccccc3nc2s1`, the TGI in the experiment with CCRF-CEM leukemia, in the experiment on COLO 205 colon, in the experiment with HL-60(TB) leukemia, with HT29 colon, in the experiment on IGROV1 ovarian and with K-562 leukemia was greater than 100 µM throughout. Besides, the TGI in the experiment on MALME-3M melanoma, with MOLT-4 leukemia, in the experiment on NCI-H522 lung, with OVCAR-4 ovarian, in the experiment on OVCAR-8 ovarian and with SN12C renal was greater than 100 µM throughout. For the same molecule, the concentration for total growth inhibition (TGI) in the experiment with SNB-19 CNS, in the experiment with TK-10 renal, with U251 CNS and in the experiment with UO-31 renal was greater than 100 µM in each case.

On to `CCOC(=O)C(N=Nc1ccc(S(N)(=O)=O)cc1)C(C)=O` (stereo not given), for which the TGI in the experiment on CCRF-CEM leukemia, in the experiment on COLO 205 colon, with HL-60(TB) leukemia, in the experiment with HT29 colon, in the experiment with IGROV1 ovarian and in the experiment on K-562 leukemia was greater than 100 µM in each case. Moreover, the TGI in the experiment on MALME-3M melanoma, in the experiment on MOLT-4 leukemia, in the experiment with NCI-H522 lung, in the experiment on OVCAR-4 ovarian, in the experiment on OVCAR-8 ovarian and in the experiment with SN12C renal was greater than 100 µM in each case. Moreover, the concentration for total growth inhibition (TGI) in the experiment on SNB-19 CNS, in the experiment on TK-10 renal, with U251 CNS and in the experiment with UO-31 renal was greater than 100 µM in each case.

Regarding `Cc1cccc(NC(=O)/C=C/c2ccc(N(CCC#N)CCC#N)cc2C)c1`, the total growth inhibition concentration (TGI) in the experiment with CCRF-CEM leukemia, with COLO 205 colon, with HL-60(TB) leukemia, with HT29 colon, in the experiment on IGROV1 ovarian and in the experiment with K-562 leukemia was greater than 100 µM each time. For the same molecule, the concentration for total growth inhibition (TGI) in the experiment on MALME-3M melanoma, in the experiment on MOLT-4 leukemia, with NCI-H522 lung, in the experiment with OVCAR-4 ovarian, with OVCAR-8 ovarian and in the experiment with SN12C renal was greater than 100 µM throughout. Further, the total growth inhibition concentration (TGI) with SNB-19 CNS, with TK-10 renal, in the experiment with U251 CNS and in the experiment on UO-31 renal was greater than 100 µM in each case.
